Entries after “also recorded” stand apart in the source; their conditions may differ. Where no end group is shown, it is not given here.
Experiments:
[1] = tested on: VSC4.1 cells, a motor neuron/neuroblastoma cell hybrid; experiment: VSC4.1 cell proliferation assay (BrdU); format: cell-based; conditions: for Biological Function / OD (optimal dose): VSC4.1 proliferation; for maximal increase in cell proliferation: % increase over control; for effect on proliferation of motor neuron/neuroblastoma cells (summary in description): in vitro
Description: Studies of proliferation were performed in 96 well plates utilizing a cell proliferation assay kit from Roche Diagnostics GmbH (Mannheim, Germany). VSC4.1 cells, a motor neuron/neuroblastoma cell hybrid, were cultured in DMEM with 2% FBS containing either no MNTF or a dose range of MNTF from 10^−8 to 10^−5 g/ml. Each treatment was applied in triplicate wells. The cells were cultured for 21 hours and 5-bromo-2′-deoxyuridine (BrdU) from the assay kit was added to each well. After BrdU labeling for 3 hours, the cells were washed, fixed and dried. The cells were then fixed and the DNA denatured to improve access for the subsequent antibody binding. POD-labeled mouse monoclonal anti-BrdU antibody from the assay kit was applied for 2 hours, followed by a wash. The assay was quantitated by adding the colorimetric assay solution (tetramethyl benzidine) and reading at 450 nm on a Wallac Vector 2 plate reader. Cells in the treatment groups were quantitated by comparing to wells plated with a gradient of cells from 0 to 20,000 cells/well on the same plate. Data is expressed as % of control to allow for variability from plate to plate.
Additional cell proliferation assays, conducted essentially as described above, were performed to compare the effects of several GLP grade MNTF peptides.
Further cell proliferation studies were performed, essentially as described above, to test the response of the motor neuron/neuroblastoma cells to three new preparations of MNTF. The MNTF preparations utilized for these assays were: […]

rat femoral nerve = experiment: Femoral nerve model, MNTF pump experiments (Preferential Motor Reinnervation); format: in vivo
Description: The specificity of motor axon regeneration was investigated in the rat femoral nerve. Proximally, at the site of nerve transection and suture, axons that contribute to both cutaneous and muscle branches intermingle throughout the nerve. As these axons regenerate, they have equal access to neighboring motor and sensory Schwann cell tubes in the distal nerve stump. This assures an element of “choice” at the axonal level. Distally, where the specificity of regeneration is assessed, axons are segregated into terminal cutaneous and muscle branches. Motor axons are normally found only in the muscle branch, so any motor reinnervation of the cutaneous branch represents a pathfinding failure. The specificity of axon regeneration is evaluated by simultaneous application of horseradish peroxidase (HRP) to one distal femoral branch and fluoro-gold (FG) to the other. Motor-axon regeneration is random at 3 weeks, but the number of correct projections to muscle increases dramatically at later times. Many neurons initially contain both tracers, and thus project collaterals to both cutaneous and muscle branches. The number of these double-labeled neurons decreases with time. Motor axon collaterals are thus pruned from the cutaneous branch, increasing the number of correct projections to muscle at the expense of double-labeled neurons. A specific interaction thus occurs between regenerating motor axons and muscle and/or muscle nerve that we have termed Preferential Motor Reinnervation (PMR).
In preliminary experiments we attempted to modify motor axon regeneration in the femoral nerve by pumping MNTF 33mer at 10^−4 M onto the repair site, using an Alzet osmotic pump which discharges for at least 2 weeks. The output of the pump was sewn to muscle adjacent to the nerve repair, so that the nerve wound would be continuously bathed with the factor. Reinnervation of the distal femoral cutaneous and muscle branches was quantified with tracers as described above.
In a follow-up experiment MNTF 33mer was administered to eight transected and sutured rat femoral nerves at 10^−4 M, essentially as described above. Controls were a group of six nerves that underwent routine suture with pumps delivering saline but no MNTF. A mean of 100 motoneurons projected correctly in the six controls, whereas a mean of 87 motoneurons projected incorrectly to skin.
To determine if a truncated MNTF peptide could be substituted for MNTF 33mer, subsequent experiments were performed, essentially as described above, using the MNTF 6mer FSRYAR, at 10^−4 M (n=8), 10^−5 M (n=8) and 10^−6 M (n=8), with a total of 22 saline controls for comparison. […] Thus the 6mer is capable of promoting selective reinnervation of target muscles in a manner similar to the MNTF1 33mer.

[2] = earliest studies, FIG. 2, listed as GLP grade MNTF 33mer
[3] = earliest studies, FIG. 2, listed as MNTF 33mer (research grade)
[4] = follow-up experiment, 10^−4 M, eight nerves, saline pump controls
[5] = preliminary experiments, 10^−4 M by Alzet osmotic pump, three weeks, three animals
[6] = 10^−4 M, 10^−5 M and 10^−6 M, FIG. 5, vs saline controls

33mer: 33 amino acid MNTF1-F6 fragment, SEQ ID NO:1, made by solid phase synthesis; positive control in cell proliferation assays (LGTFWGDTLNCWMLSAFSRYARCLAEGHDGPTQ) [reference compound]
Biological Function ([1]; assay set Aug. 4, 2003): Effective | OD (optimal dose) ([1]; assay set Aug. 4, 2003): 0.01 µg/mL | Biological Function ([1]; assay set Mar. 28, 2003): Effective | OD (optimal dose) ([1]; assay set Mar. 28, 2003, listed as 33mer GLPg, L): 10 µg/mL | OD (optimal dose) ([1]; assay set Mar. 28, 2003, listed as 33mer Rg, L): 100 µg/mL | Biological Function ([1]; assay set Oct. 27, 2002): Effective | OD (optimal dose) ([1]; assay set Oct. 27, 2002, listed as 33mer GLPg, L): 0.1 µg/mL | OD (optimal dose) ([1]; assay set Oct. 27, 2002, listed as 33mer Rg, L): 10 µg/mL | maximal increase in cell proliferation [1, 2]: 34.3% | maximal increase in cell proliferation [1, 3]: 31.7% | relative effectiveness in proliferation assay (words) ([1]; earliest studies, FIG. 2, listed as GLP grade 33mer): most biologically active | dose of maximal response [1, 2]: 100 ng/mL | relative effectiveness in proliferation assay (words) [1, 2]: most effective in this assay | dose of maximal response [1, 3]: 10000 ng/mL | effect on proliferation of motor neuron/neuroblastoma cells (summary in description) [1]: effective at increasing the proliferation of motoneuron/neuroblastoma cells | peak fold response in proliferation ([1]; second set, FIG. 3, at 10 μg/ml): 3 fold | fold increase in proliferation ([1]; second set, FIG. 3, highest dose): ~3 fold | relative effectiveness in proliferation assay (words) ([1]; third set, FIG. 4): significantly (p<0.05) stimulated proliferation over control; also recorded: nearly as well as the 10mer at low doses; also recorded: clearly superior to the 21mer | correct projections of motoneurons to muscle (mean) (rat femoral nerve; [4]): 173 | incorrect projections of motoneurons to skin (mean) (rat femoral nerve; [4]): 59 | correct projections of motoneurons to muscle (mean) (rat femoral nerve; [5]): 210 | incorrect projections of motoneurons to skin (mean) (rat femoral nerve; [5]): 31

CWMLSAFSRYARC [13mer]
Biological Function ([1]; assay set Mar. 28, 2003): Effective | OD (optimal dose) ([1]; assay set Mar. 28, 2003): 0.1 µg/mL | effect on proliferation of motor neuron/neuroblastoma cells (summary in description) [1]: sufficient to increase cell proliferation of motor neuron/neuroblastoma cells | stimulation of VSC4.1 cell proliferation over controls ([1]; second round of experiments): ≥ 250% | relative effectiveness in proliferation assay (words) ([1]; second set, FIG. 3): some efficacy at the lowest dose, this effect fell off at higher doses

Cyclized MNTF 33mer: cyclized version of the MNTF1 33-mer, SEQ ID NO:1, research grade (LGTFWGDTLNCWMLSAFSRYARCLAEGHDGPTQ; also: cyclized)
Biological Function ([1]; assay set Oct. 27, 2002): Limited Efficacy. | dose of maximal response ([1]; earliest studies, FIG. 2): 100 ng/mL | relative effectiveness in proliferation assay (words) ([1]; earliest studies, FIG. 2): limited efficacy | maximal increase in cell proliferation ([1]; earliest studies, FIG. 2): 12.9% | relative effectiveness in proliferation assay (words) ([1]; earliest studies, FIG. 2, listed as cyclized MNTF 33mer): very weak proliferative activity at low doses | effect on proliferation of motor neuron/neuroblastoma cells (summary in description) [1]: less effective

FSRYAR [6mer]
Biological Function ([1]; assay set Mar. 28, 2003): Effective | OD (optimal dose) ([1]; assay set Mar. 28, 2003): 1 µg/mL | Biological Function ([1]; assay set Oct. 27, 2002): Effective | OD (optimal dose) ([1]; assay set Oct. 27, 2002): 10 µg/mL | dose of maximal response ([1]; earliest studies, FIG. 2): 10000 ng/mL | relative effectiveness in proliferation assay (words) ([1]; earliest studies, FIG. 2): comparably effective | maximal increase in cell proliferation ([1]; earliest studies, FIG. 2): 35.1% | effect on proliferation of motor neuron/neuroblastoma cells (summary in description) [1]: sufficient to increase cell proliferation of motor neuron/neuroblastoma cells | relative effectiveness in proliferation assay (words) ([1]; second set, FIG. 3): poorest performers; also recorded: less effectively than the others | fold increase in proliferation ([1]; second set, FIG. 3, at 1 μg/ml): ~2.5 fold | correct projections (rat femoral nerve; [6]): significant increases in correct projections at every dose tested | incorrect projections to skin (rat femoral nerve; [6]): marked reductions in the number of incorrect projections to skin
